{"source": "paper PMC10950897", "about": "“VCF1 is a p97/VCP cofactor promoting recognition of ubiquitylated p97-UFD1-NPL4 substrates” (Nature Communications, 2024)", "key": {"[1]": {"test_system": "p97 (His6-p97 Y143A)", "assay": "SPR: binding to immobilized His6-p97 Y143A mutant", "parameters": "species or system human", "conditions": "full-length VCF1 up to 100 nM", "protocol": "Surface Plasmon Resonance (SPR)\nAll SPR experiments were performed at 25 °C on a Biacore T200 instrument equipped with CM5 or CM7 sensor chips (Cytiva, Uppsala, Sweden). SPR running buffers and amine-coupling reagents (N-ethyl-N’-(3-dimethlyaminoproply)carbodiimide (EDC), N-hydroxysuccinimide (NHS), and ethanolamine HCl) were purchased from Cytiva. 1x PBS-P (11.9 mM NaH2PO4-Na2HPO4, pH 7.4; 137 mM NaCl; 2.7 mM KCl; 0.005% surfactant P20) supplemented with 0.5 mM TCEP was used as running buffer for the immobilization and the binding experiments with Strep-HA-VCF1 full-length proteins. For the VCF1 C-terminal peptide binding studies, 2% DMSO was additionally included in the running buffer. Eight solvent correction samples ranging from 1.5% DMSO to 2.8% DMSO prepared in either PBS-P, 0.5 mM TCEP or Tris-based buffer were used to correct buffer/DMSO mismatches. […] The dissociation rate of the p97-VCF1 complexes was monitored for 400 s. […] Binding experiments were measured in triplicates. […] The equilibrium dissociation contants, Kd, were determined by plotting the equilibrium responses levels (Req) against […] and fitting to a steady-state model."}, "[2]": {"test_system": "p97 hexamer (His6-p97)", "assay": "Mass photometry", "type": "binding, human", "conditions": "saturating VCF1, absence of other cofactors", "protocol": "Mass photometry experiments were performed on a Refeyn One (Refeyn Ltd) mass photometer at room temperature. Measurements were run in triplicates, diluting 3 μl of protein sample (20 nM) in 15 μl PBS buffer loaded on a gasket (Grace Bio-Labs reusable CultureWell gaskets (GBL103250, Merck)) mounted on a glass microscope coverslip (0107222, Marienfeld). Experiments were performed with His6-p97 alone and in presence of saturating concentrations of full-length Strep-HA-VCF1. The molecular weight was obtained by contrast comparison with known molecular weight mass standard calibrants (NativeMark Unstained Protein Standard (LC0725), Thermo Fischer Scientific) measured on the same buffer and on the same day. Movies were recorded using AcquireMP (Refeyn Ltd, version 2022 R1), with a medium field of view and exposure time of 0.95 ms for the acquisition camera settings. A total of 6000 frames were recorded over a duration of one minute. Movies were processed and analysed with the DiscoverMP software (Refeyn Ltd, version 2022 R1) provided by the instrument manufacturer."}, "[3]": {"test_system": "p97-UFD1-NPL4 binding to K48-Ub2-7", "assay": "FLAG IP: p97-UFD1-NPL4 binding to K48-linked ubiquitin chains, purified proteins", "type": "biochemical, human", "conditions": "purified proteins", "protocol": "All in vitro binding experiments were performed in EBC or RIPA buffer as indicated. Recombinant Biotin-tagged K48-linked poly-ubiquitin chains (2−7) and K48-linked poly-ubiquitin chains (2−16) were purchased from R&D Systems and Enzo Life Science, respectively. Recombinant proteins were incubated with Strep-Tactin Sepharose (IBA), Glutathione agarose (Gold Biotechnology) or […] Fab-trap agarose (ChromoTek) overnight on an end-over-end rotator at 4 °C, washed six times with EBC or RIPA buffer, and resuspended in 2×Laemmli sample buffer. For p97, VCF1 or p47 pulldowns, antibodies (0.5 µg/sample) were coupled to agarose beads, incubated with recombinant proteins or cell lysates and washed with the indicated buffer. To assess p97-UFD1-NPL4 binding to ubiquitylated proteins in total cell extracts, U2OS cells were lysed in EBC buffer supplemented with protease and phosphatase inhibitors, sonicated and incubated on ice for 10 min. Lysates were cleared by centrifugation for 10 min at 16,100 × g. Cell lysate (40 µg) was added to recombinant proteins in EBC buffer, incubated overnight on the rotator with […] Fab-trap agarose (ChromoTek), and beads were washed six times."}}}
{"substance": "VCF1: human FAM104A isoform 1, 186 amino acids (UniProt Q969W3); recombinant Strep-HA-tagged", "values": [{"measurement": "binding to p97 Y143A (in words)", "setting": "[1]", "value": "did not show detectable binding affinity"}, {"measurement": "binding to p97 Y143A (in words)", "setting": "[1]; listed as Strep-HA-VCF1 WT", "value": "no dose-dependent response was observed"}, {"measurement": "VCF1 molecules bound per p97 hexamer", "setting": "[2]", "value": "2-3 molecules per p97 hexamer"}, {"measurement": "effect on UFD1-NPL4 association with p97", "setting": "[3]", "value": "no discernible impact on UFD1-NPL4 association with p97"}, {"measurement": "effect on p97-UFD1-NPL4 binding to K48 ubiquitin chains", "setting": "[3]; FLAG IP", "value": "strong stimulatory impact on p97-UFD1-NPL4 binding to K48-linked poly-ubiquitin chains in vitro"}]}
